Molecular target: T1, serotonin transporter (Rattus norvegicus, UniProt P31652)
T1 construct: frontal cortical membranes prepared from male S.D. rats; from tissue; host or cells: rat frontal cortex membranes (male Sprague-Dawley rats)
Experiment: 3H-Paroxetine binding to assess affinity for the serotonin transporter
Conditions: not given
Method: The affinity of drugs for the serotonin transporter was determined by assessing the ability of agents to displace specifically bound 3H-paroxetine binding from rat cortical membranes. […] Nonspecific binding was determined using fluoxetine.
^3H-Paroxetine Binding to Assess Affinity of Drugs for the Serotonin Transporter:
Briefly, frontal cortical membranes prepared from male S.D. rats were incubated with ^3H-paroxetine (0.1 nM) for 60 min at 25°C. All tubes also contained either vehicle, test compound (one to eight concentrations), or a saturating concentration of fluoxetine (10 µM) to define […]. All reactions are terminated by the addition of ice cold Tris buffer followed by rapid filtration using a Tom Tech filtration device to separate bound from free ^3H-paroxetine.

T1 sequence (P31652 whole entry): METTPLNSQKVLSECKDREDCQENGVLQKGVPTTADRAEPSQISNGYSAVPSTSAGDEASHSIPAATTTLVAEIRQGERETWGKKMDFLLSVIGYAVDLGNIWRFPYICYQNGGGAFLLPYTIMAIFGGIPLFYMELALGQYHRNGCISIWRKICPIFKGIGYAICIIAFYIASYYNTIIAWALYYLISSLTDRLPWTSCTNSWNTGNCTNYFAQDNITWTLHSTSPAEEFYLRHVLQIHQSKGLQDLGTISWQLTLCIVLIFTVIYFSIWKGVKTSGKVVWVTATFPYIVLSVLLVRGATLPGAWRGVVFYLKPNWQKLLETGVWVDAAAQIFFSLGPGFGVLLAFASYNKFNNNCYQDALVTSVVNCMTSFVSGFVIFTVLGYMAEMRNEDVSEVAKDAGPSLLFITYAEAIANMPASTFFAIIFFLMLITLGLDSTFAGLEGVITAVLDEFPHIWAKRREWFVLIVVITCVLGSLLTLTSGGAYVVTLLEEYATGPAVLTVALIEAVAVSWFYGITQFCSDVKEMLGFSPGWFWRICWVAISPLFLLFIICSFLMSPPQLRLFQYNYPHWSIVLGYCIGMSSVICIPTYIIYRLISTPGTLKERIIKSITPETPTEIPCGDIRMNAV

| Compound | Ki |
| --- | --- |
| Cc1nc2ccccc2n1CC(O)CN1CC=C(c2c[nH]c3ccccc23)CC1 (stereo not shown) [Example 13, 1-[4-(1H-Indol-3-yl)-3,6-dihydro-2H-pyridin-1-yl]-3-(2-methyl-benzoimidazol-1-yl)-propan-2-ol] | 0.4 nM |
| COc1cccc2c1ccn2C[C@@H](O)CN1CC=C(c2c[nH]c3ccccc23)CC1 [Example 14, (2S)-1-[4-(1H-Indol-3-yl)-3,6-dihydro-2H-pyridin-1-yl]-3-(4-methoxy-indol-1-yl)-propan-2-ol] | 0.03 nM |
| O[C@@H](CN1CC=C(c2c[nH]c3ccccc23)CC1)Cn1ccc2c(F)cccc21 [Example 15, (2S)-1-(4-Fluoro-indol-1-yl)-3-[4-(1H-indol-3-yl)-3,6-dihydro-2H-pyridin-1-yl]-propan-2-ol] | 0.3 nM |
| OC(CN1CC=C(c2c[nH]c3ccccc23)CC1)Cn1ccc2cc(F)ccc21 (stereo not shown) [Example 8, 1-(5-Fluoro-indol-1-yl)-3-[4-(1H-indol-3-yl)-3,6-dihydro-2H-pyridin-1-yl]-propan-2-ol] | 1.4 nM |
| COc1cccc2c1ccn2CC(O)CN1CC=C(c2c[nH]c3ccccc23)CC1 (stereo not shown) [Example 11, 1-[4-(1H-Indol-3-yl)-3,6-dihydro-2H-pyridin-1-yl]-3-(4-methoxy-indol-1-yl)-propan-2-ol] | 0.04 nM |
| OC(CN1CC=C(c2c[nH]c3ccccc23)CC1)Cn1ccc2c(F)cccc21 (stereo not shown) [Example 10, 1-(4-Fluoro-indol-1-yl)-3-[4-(1H-indol-3-yl)-3,6-dihydro-2H-pyridin-1-yl]-propan-2-ol] | 0.01 nM |

Same assay, conditions: read-out: Inhibition of [3H]-Paroxetine binding Ki; compounds of formula (1); rat frontal cortical membranes, 3H-paroxetine 0.1 nM, 60 min at 25°C; nonspecific binding with fluoxetine 10 µM

| Compound | Ki |
| --- | --- |
| OC(CN1CC=C(c2c[nH]c3ccccc23)CC1)Cn1ccc2ccccc21 (stereo not shown) [Example 12, 1-Indol-1-yl-3-[4-(1H-indol-3-yl)-3,6-dihydro-2H-pyridin-1-yl]-propan-2-ol] | 1.7 nM |
